Source: ChEMBL document CHEMBL4346735, “Discovery and pharmacological evaluation of indole derivatives as potent and selective RORγt inverse agonist for multiple autoimmune conditions” (Bioorg Med Chem Lett, 2019)
Values after ≈ are worked out from the molar mass of the structure shown.

Columns and labels:
[1] = Cmax in mouse at 10 mg/kg, po; assay type: ADME, organism-based; design: dose 10 mg/kg, route oral; conditions: in vivo
[2] = Tmax in mouse at 10 mg/kg, po; assay type: ADME, organism-based; conditions: in vivo
[3] = AUC (0 to 24 hrs) in mouse at 10 mg/kg, po; assay type: ADME, organism-based; design: dose 10 mg/kg, time < 24 hr, route oral; conditions: in vivo
[4] = Volume of distribution at steady state in mouse at 3 mg/kg, iv; assay type: ADME, organism-based; conditions: in vivo, read-out: Vdss
[5] = Clearance in mouse at 3 mg/kg, iv; assay type: ADME, organism-based; conditions: in vivo
[6] = Half life in mouse at 3 mg/kg, iv; assay type: ADME, organism-based; conditions: in vivo
[7] = Oral bioavailability in mouse at 10 mg/kg; assay type: ADME, organism-based; conditions: in vivo
[8] = target: T1, Nuclear receptor ROR-alpha (Homo sapiens, UniProt P35398); assay: Inhibition of GAL4-DBD fused RORalpha LBD (unknown origin) expressed in HEK293T cells; assay type: cell-based
T1 sequence (P35398 whole entry): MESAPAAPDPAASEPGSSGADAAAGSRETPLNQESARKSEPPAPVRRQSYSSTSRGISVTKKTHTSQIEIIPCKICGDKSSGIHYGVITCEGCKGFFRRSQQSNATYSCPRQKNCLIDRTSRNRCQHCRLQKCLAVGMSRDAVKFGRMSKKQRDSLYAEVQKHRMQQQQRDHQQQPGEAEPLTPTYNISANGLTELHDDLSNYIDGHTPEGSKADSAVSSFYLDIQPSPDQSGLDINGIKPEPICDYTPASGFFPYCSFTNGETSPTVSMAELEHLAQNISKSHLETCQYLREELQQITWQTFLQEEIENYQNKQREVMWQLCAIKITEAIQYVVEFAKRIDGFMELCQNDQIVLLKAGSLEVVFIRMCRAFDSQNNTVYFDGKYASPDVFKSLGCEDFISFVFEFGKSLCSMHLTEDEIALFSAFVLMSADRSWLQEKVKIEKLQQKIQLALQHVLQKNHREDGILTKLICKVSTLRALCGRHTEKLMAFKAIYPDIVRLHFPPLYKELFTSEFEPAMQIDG

[9] = Metabolic stability in mouse liver microsomes assessed as parent compound remaining at 1 uM preincubated for 5 mins followed by NADPH addition after 30 mins by LC-MS/MS analysis; assay type: ADME, Microsome; conditions: read-out: Stability
[10] = Metabolic stability in rat liver microsomes assessed as parent compound remaining at 1 uM preincubated for 5 mins followed by NADPH addition after 30 mins by LC-MS/MS analysis; assay type: ADME, Microsome; conditions: read-out: Stability
[11] = Metabolic stability in human liver microsomes assessed as parent compound remaining at 1 uM preincubated for 5 mins followed by NADPH addition after 30 mins by LC-MS/MS analysis; assay type: ADME, Microsome; conditions: read-out: Stability
[12] = target: T2, Nuclear receptor ROR-gamma (Homo sapiens, UniProt P51449); assay: Transactivation of recombinant GAL4-DBD fused RORgammat LBD (unknown origin) expressed in HEK293T cells incubated for 18 to 24 hrs by dual-Glo luciferase assay; assay type: cell-based
T2 sequence (P51449 whole entry): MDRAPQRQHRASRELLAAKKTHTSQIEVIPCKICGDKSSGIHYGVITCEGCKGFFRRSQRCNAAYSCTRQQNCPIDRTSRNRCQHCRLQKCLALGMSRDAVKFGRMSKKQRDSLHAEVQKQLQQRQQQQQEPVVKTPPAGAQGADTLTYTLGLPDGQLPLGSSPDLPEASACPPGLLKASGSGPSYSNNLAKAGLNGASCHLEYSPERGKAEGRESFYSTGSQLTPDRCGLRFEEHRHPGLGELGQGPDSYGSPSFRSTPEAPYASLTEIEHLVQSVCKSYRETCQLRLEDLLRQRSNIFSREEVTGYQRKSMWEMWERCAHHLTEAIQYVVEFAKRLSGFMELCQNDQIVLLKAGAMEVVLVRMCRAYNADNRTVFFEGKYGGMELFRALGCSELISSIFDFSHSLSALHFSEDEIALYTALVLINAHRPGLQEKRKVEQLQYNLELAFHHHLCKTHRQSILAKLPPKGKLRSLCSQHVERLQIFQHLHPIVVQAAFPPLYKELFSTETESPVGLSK

Cytochrome P450 1A2 = target: T3, Cytochrome P450 1A2 (Homo sapiens, UniProt P05177); assay: Inhibition of CYP1A2 in human liver microsomes using phenacetin as substrate preincubated for 5 mins followed by NADPH addition measured after 10 mins by LC-MS/MS analysis
T3 sequence (P05177 whole entry): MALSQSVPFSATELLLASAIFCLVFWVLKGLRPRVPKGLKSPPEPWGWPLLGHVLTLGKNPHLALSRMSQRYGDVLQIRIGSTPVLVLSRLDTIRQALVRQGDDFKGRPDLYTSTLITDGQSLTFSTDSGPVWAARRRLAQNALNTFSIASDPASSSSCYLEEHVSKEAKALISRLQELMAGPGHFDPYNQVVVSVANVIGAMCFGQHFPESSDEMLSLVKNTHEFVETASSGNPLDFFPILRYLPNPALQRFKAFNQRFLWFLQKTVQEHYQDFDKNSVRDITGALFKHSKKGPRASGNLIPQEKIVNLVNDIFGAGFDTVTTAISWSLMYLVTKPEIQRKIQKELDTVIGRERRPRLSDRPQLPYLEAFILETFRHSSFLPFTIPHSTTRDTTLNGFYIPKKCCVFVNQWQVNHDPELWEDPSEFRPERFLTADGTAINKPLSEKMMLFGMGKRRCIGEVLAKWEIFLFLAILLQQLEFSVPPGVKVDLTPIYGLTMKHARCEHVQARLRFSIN

Cytochrome P450 2C9 = Cytochrome P450 2C9 (Homo sapiens, UniProt P11712); assay: Inhibition of CYP2C9 in human liver microsomes using diclofenac as substrate preincubated for 5 mins followed by NADPH addition measured after 10 mins by LC-MS/MS analysis
Cytochrome P450 2C19 = Cytochrome P450 2C19 (Homo sapiens, UniProt P33261); assay: Inhibition of CYP2C19 in human liver microsomes using (S)-mephenytoin as substrate preincubated for 5 mins followed by NADPH addition measured after 40 mins by LC-MS/MS analysis
Cytochrome P450 2D6 = Cytochrome P450 2D6 (Homo sapiens, UniProt P10635); assay: Inhibition of CYP2D6 in human liver microsomes using dextromethorphan as substrate preincubated for 5 mins followed by NADPH addition measured after 10 mins by LC-MS/MS analysis
Cytochrome P450 3A4 [13] = target: T4, Cytochrome P450 3A4 (Homo sapiens, UniProt P08684); assay: Inhibition of CYP3A4 in human liver microsomes using testosterone as substrate preincubated for 5 mins followed by NADPH addition measured after 10 mins by LC-MS/MS analysis
Cytochrome P450 3A4 [14] = target: T4, Cytochrome P450 3A4; assay: Inhibition of CYP3A4 in human liver microsomes using midazolam as substrate preincubated for 5 mins followed by NADPH addition measured after 10 mins by LC-MS/MS analysis
[15] = Solubility of the compound at pH 2.1; conditions: buffer
[16] = Solubility of the compound at pH 4; conditions: buffer
[17] = Solubility of the compound at pH 7.4; conditions: buffer
[18] = target: T5, Nuclear receptor ROR-gamma (Mus musculus) (UniProt P51450); assay: Transrepression of RORgammat in Balb/c mouse splenocytes assessed as inhibition of anti-CD3/anti-CD28 stimulated IL-17 gene expression at 0.3 uM measured after 24 hrs in presence of anti-CD3/anti-CD28; assay type: cell-based
T5 sequence (whole entry): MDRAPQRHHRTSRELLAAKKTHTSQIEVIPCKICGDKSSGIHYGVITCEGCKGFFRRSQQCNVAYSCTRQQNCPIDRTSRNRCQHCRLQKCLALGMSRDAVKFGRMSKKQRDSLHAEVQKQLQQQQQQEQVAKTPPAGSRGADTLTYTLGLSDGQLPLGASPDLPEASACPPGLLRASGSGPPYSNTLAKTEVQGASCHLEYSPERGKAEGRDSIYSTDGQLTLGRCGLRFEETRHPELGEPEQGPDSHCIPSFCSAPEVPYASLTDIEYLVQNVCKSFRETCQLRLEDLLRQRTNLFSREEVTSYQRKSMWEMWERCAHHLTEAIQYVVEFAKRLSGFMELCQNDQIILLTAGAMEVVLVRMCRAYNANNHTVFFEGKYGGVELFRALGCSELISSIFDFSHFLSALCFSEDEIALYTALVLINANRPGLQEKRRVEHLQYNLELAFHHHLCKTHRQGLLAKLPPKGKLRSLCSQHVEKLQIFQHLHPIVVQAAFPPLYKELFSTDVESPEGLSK

[19] = target: T5, Nuclear receptor ROR-gamma (Mus musculus); assay: Transrepression of RORgammat in Balb/c mouse splenocytes assessed as inhibition of anti-CD3/anti-CD28 stimulated IL-17 gene expression at 3 uM measured after 24 hrs in presence of anti-CD3/anti-CD28; assay type: cell-based
[20] = target: T5, Nuclear receptor ROR-gamma (Mus musculus); assay: Transrepression of RORgammat in Balb/c mouse splenocytes assessed as inhibition of anti-CD3/anti-CD28 stimulated IL-17 gene expression at 30 uM measured after 24 hrs in presence of anti-CD3/anti-CD28; assay type: cell-based

Chain of Cytochrome P450 2C19 (P33261 whole entry): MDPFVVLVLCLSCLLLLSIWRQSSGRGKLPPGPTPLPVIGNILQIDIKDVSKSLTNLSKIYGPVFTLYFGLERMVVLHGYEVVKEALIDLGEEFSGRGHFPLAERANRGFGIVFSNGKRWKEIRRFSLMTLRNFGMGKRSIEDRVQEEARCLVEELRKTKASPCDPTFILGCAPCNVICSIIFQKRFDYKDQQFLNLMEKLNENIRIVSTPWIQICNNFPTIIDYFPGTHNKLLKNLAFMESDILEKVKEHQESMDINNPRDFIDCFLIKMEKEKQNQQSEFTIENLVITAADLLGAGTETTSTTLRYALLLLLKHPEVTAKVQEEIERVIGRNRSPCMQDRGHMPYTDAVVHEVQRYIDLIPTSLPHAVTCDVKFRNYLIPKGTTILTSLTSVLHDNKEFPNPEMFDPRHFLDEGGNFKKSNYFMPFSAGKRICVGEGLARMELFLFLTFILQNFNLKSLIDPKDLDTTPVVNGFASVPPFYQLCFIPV
T4 sequence (P08684 whole entry): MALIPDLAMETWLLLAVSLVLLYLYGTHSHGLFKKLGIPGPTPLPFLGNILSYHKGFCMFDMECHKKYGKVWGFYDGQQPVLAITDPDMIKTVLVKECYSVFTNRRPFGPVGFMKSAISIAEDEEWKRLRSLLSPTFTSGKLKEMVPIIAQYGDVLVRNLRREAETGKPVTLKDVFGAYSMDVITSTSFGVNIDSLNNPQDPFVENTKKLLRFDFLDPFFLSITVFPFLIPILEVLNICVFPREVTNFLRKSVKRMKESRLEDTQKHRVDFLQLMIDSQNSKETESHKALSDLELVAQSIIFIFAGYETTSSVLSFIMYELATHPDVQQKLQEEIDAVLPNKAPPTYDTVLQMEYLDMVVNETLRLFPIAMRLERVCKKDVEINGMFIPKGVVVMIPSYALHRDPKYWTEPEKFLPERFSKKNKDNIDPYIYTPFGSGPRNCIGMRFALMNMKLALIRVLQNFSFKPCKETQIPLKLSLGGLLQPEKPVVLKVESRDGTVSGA
Chain of Cytochrome P450 2D6 (P10635 whole entry): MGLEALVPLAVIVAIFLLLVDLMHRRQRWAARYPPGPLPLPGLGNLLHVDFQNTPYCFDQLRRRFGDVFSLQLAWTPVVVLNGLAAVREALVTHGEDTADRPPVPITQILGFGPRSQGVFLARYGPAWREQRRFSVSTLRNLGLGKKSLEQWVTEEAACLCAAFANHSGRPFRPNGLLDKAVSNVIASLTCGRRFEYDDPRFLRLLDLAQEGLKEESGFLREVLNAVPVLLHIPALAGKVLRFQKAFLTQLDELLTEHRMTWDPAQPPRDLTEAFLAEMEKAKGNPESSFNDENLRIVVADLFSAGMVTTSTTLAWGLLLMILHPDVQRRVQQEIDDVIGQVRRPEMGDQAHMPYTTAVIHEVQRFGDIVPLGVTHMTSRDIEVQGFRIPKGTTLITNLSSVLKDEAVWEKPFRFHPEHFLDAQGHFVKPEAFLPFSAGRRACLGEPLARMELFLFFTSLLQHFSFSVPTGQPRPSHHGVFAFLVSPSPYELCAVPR
Chain of Cytochrome P450 2C9 (P11712 whole entry): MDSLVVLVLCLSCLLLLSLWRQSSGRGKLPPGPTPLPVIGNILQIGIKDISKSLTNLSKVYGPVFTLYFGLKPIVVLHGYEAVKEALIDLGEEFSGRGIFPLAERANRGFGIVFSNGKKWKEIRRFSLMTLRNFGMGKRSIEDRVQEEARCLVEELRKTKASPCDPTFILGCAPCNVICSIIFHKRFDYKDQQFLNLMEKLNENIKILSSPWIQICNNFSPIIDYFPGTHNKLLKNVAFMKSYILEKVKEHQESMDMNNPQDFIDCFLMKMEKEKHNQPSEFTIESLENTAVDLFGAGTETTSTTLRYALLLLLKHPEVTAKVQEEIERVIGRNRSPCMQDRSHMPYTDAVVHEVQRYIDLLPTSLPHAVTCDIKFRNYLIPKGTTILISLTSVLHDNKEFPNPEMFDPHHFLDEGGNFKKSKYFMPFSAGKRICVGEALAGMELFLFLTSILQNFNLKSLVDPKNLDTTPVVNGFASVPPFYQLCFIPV

| Compound | Cmax [1] | Tmax [2] | AUC(0-t) at 24 h [3] | Vd [4] | clearance [5] | half-life [6] | bioavailability [7] | IC50 [8] | remaining at 0.5 h, 1 µM [9] | remaining at 0.5 h, 1 µM [10] | remaining at 0.5 h, 1 µM [11] | IC50 [12] | IC50 (Cytochrome P450 1A2) | IC50 (Cytochrome P450 2C9) | IC50 (Cytochrome P450 2C19) | IC50 (Cytochrome P450 2D6) | further results |
| --- | --- | --- | --- | --- | --- | --- | --- | --- | --- | --- | --- | --- | --- | --- | --- | --- | --- |
| O=C(O)c1ccc(-n2cc(C(=O)c3c(Cl)cccc3Cl)c3ccccc32)c(F)c1 | 5.7 µM | 0.5 h | 9.1 µM·h | 2.8 L/kg | 21.2 mL/min/kg | 1.8 h | 52% | > 30 µM | 91% | 51% | 92% | – | – | – | – | – | – |
| O=C(O)c1ccc(-n2cc(C(=O)c3c(Cl)cccc3C(F)(F)F)c3cccnc32)c(F)c1 | 12.1 µM | 0.5 h | 35.1 µM·h | 2.4 L/kg | 11 mL/min/kg | 3.2 h | 100% | > 30 µM | 87% | 73% | 100% | 0.015 µM | > 50 µM | 17.2 µM | > 50 µM | > 50 µM | IC50 (Cytochrome P450 3A4 [13]): > 50 µM |
| Cc1cccc(Cl)c1C(=O)c1cn(-c2ccc(C(=O)O)cc2)c2ccccc12 | 18.3 µM | 0.25 h | 19.6 µM·h | 2.5 L/kg | 9.6 mL/min/kg | 3.2 h | 45% | > 30 µM | 85% | 83% | 89% | 0.025 µM | > 50 µM | 13.5 µM | > 50 µM | > 50 µM | IC50 (Cytochrome P450 3A4 [14]): > 50 µM; solubility [15]: 1 µM (≈ 0.39 µg/mL); solubility [16]: 1 µM (≈ 0.39 µg/mL); solubility [17]: > 2000 µM; inhibition [18]: 3%; inhibition [19]: 49%; inhibition [20]: 56% |
